Results on 1 substance are retold here after US20210206810A1, “Detection of Optimal Recombinants Using Fluorescent Protein Fusions” (priority 2019, published 2021).

One series concerns Micrococcus luteus. Briefly: Determination of minimum inhibitory concentration (MIC). Type of series: cell-based. The following applies: visual inspection after 24 hours at 37° C. in MHB; tested 0.25 to 32 μg/mL.
For series [1], the system named is methicillin resistant Staphylococcus aureus (MRSA). As to conditions: microbial species including MRSA; cited from earlier work.

As for epidermicin-N101, the “minimum inhibitory concentration (growth of Micrococcus luteus)” value with Micrococcus luteus was determined as 2 mg/L. Also, the “cytotoxicity to microbial species” value in series [1] is reported as “highly cytotoxic”.
